# Activity calls are given as the source filed them.
# Tests used:
# [1] = Luminescence-based cell-based high throughput dose response assay to identify activators of the DAF-12 from the parasite S. stercoralis (ssDAF-12).; format: functional
# [2] = target: T1, Oxysterols receptor LXR-beta (Homo sapiens, UniProt P55055); assay: LXR agonists, Gal4 luciferase reporter, dose response, counter-screen for ssDAF-12 agonist project, cell-based, luminescence, HEK293, S. stercoralis campaign (AID 720737); format: functional; settings: read-out: IC50 (the source's name)
# T1 sequence (P55055 whole entry): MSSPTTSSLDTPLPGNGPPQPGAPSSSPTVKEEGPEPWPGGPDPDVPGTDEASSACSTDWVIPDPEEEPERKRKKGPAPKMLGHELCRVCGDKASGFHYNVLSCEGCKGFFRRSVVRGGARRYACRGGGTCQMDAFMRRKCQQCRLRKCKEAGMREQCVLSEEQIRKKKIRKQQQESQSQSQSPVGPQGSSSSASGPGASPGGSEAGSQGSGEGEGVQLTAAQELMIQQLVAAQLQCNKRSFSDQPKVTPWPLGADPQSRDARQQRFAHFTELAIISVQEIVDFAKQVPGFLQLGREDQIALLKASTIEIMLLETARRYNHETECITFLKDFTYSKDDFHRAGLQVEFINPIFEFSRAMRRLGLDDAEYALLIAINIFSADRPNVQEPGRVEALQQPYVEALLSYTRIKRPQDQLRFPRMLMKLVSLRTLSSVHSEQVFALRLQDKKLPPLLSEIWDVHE
# [3] = inhibitors of PGC1a acetylation in cells, dose response, cell-based, cherry-picked samples (AID 720514); format: functional;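 also: potency may reflect raised or lowered acetylation signal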
# [4] = Jurkat T cell cytotoxicity, dose response, cytotoxicity control for P. falciparum gametocyte viability project, luminescence (AID 1117277); format: functional, cell-based;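 also: potency reflects loss of cellular ATP meaning fewer viable cells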
# [5] = P. falciparum late gametocyte killing, dose response, luminescence (AID 1117278); format: functional, cell-based;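 also: gametocytes exposed to compound for 24 hours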
# [6] = target: T2, Polyadenylate-binding protein 1 (Homo sapiens, UniProt P11940); assay: PABP1 MLLE–PAM2 binding inhibitor potency, dose response, biochemical, fluorescence polarization, FITC-PAM2 peptide (AID 602259); format: functional; settings: read-out: IC50_Mean
# [7] = target: T2, Polyadenylate-binding protein 1; assay: PABP1 MLLE–PAM2 interaction inhibitors, dose response, miRNA deadenylation inhibitor project, biochemical, fluorescence polarization, Cy5-PAM2 peptide, secondary (AID 602260); format: functional; settings: read-out: IC50_Mean
# [8] = target: NAD-dependent protein deacylase sirtuin-5, mitochondrial (Homo sapiens, UniProt Q9NXA8); assay: SIRT5 desuccinylase inhibitors, dose response, biochemical, fluorescence imaging, cherry-pick, set 5 (AID 720591);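 also: desuccinylation of succinyl peptide AMC substrate read as fluorescence after trypsin release; potency of inhibitors that lower fluorescence and may act on trypsin instead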
# Estrogen receptor beta [9] = target: T3, Estrogen receptor beta (Homo sapiens, UniProt Q92731);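 also: recombinant ER-beta bound to coactivator SRC1 peptide in presence of estradiol agonist; inhibitors block coactivator peptide binding and lower the FRET signal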
# Estrogen receptor beta [10] = target: T3, Estrogen receptor beta; assay: ERβ–SRC-3 coactivator interaction inhibitors, confirmation, orthogonal assay, biochemical, ELISA, streptavidin-HRP readout (AID 1060)
# [11] = A cytotoxicity screen of small molecule inhibitors of the PhoP region in Salmonella typhi identified in the primary screen. [Related pubchem assays: 1850, 1864, 1985 ]; format: functional
# [12] = target: T4, Calpain-2 catalytic subunit (Sus scrofa, UniProt P43367); assay: pig calpain II inhibitor potency, dose response, biochemical, fluorogenic peptide substrate (AID 1420); format: functional
# T4 sequence (P43367 whole entry): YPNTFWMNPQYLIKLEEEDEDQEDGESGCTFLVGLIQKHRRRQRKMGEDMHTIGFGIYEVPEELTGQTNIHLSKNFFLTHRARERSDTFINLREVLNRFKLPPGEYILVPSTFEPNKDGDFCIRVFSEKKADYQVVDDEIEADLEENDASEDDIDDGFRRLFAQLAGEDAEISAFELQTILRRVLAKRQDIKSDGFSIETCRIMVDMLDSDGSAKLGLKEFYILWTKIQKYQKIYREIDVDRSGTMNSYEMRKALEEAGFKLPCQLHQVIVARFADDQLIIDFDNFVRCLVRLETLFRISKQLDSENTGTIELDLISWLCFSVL
# [13] = target: T5, Microphthalmia-associated transcription factor (Homo sapiens, UniProt O75030); assay: TRPM1 promoter luciferase signal decrease, dose response, MITF inhibitor project, cell-based, SK-MEL-5, cherry-picked, set 3 (AID 493073); format: functional
# T5 sequence (O75030 whole entry): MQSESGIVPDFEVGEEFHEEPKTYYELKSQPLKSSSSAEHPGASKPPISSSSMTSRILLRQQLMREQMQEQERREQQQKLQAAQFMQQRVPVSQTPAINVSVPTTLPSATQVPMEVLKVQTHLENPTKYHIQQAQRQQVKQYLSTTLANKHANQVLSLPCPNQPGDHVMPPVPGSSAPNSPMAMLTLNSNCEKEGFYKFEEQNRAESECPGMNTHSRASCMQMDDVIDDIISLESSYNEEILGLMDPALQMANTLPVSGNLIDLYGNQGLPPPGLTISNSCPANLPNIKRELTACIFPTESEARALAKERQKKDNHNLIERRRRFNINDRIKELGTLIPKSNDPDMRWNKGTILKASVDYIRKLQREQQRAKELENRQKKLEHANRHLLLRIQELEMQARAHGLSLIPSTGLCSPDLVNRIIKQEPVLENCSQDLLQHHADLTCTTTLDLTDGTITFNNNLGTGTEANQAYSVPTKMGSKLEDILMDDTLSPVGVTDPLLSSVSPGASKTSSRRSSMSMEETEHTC
# cells [14] = assay: cells
# [15] = target: T1, Oxysterols receptor LXR-beta; format: functional, cell-based
# [16] = inhibitors of intracellular T. cruzi replication, confirmation, NIH3T3 host cells, beta-gal luminescence (AID 2044); format: functional, cell-based;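 also: intracellular parasites grown in NIH/3T3 mouse fibroblasts as host cells; luminescent beta-galactosidase reporter signal from transgenic T. cruzi replicating inside host cells; inhibitors lower the luminescence signal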
# Nonstructural protein 1 = Nonstructural protein 1 (Influenza A virus, UniProt Q194T2); format: functional, Influenza A virus (A/California/07/2009(H1N1))
# cells [17] = assay: cells; remark: listed apart in the source
# [18] = cytotoxicity toward NIH3T3 fibroblasts, dose response, counter-screen, cell-based, ATP luminescence, mouse fibroblasts (AID 2010); format: functional;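 also: cells exposed to compound for about 90 hours before reading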
# Protein skinhead-1 = target: T6, Protein skinhead-1 (Caenorhabditis elegans, UniProt P34707); format: functional
# T6 sequence (P34707 whole entry): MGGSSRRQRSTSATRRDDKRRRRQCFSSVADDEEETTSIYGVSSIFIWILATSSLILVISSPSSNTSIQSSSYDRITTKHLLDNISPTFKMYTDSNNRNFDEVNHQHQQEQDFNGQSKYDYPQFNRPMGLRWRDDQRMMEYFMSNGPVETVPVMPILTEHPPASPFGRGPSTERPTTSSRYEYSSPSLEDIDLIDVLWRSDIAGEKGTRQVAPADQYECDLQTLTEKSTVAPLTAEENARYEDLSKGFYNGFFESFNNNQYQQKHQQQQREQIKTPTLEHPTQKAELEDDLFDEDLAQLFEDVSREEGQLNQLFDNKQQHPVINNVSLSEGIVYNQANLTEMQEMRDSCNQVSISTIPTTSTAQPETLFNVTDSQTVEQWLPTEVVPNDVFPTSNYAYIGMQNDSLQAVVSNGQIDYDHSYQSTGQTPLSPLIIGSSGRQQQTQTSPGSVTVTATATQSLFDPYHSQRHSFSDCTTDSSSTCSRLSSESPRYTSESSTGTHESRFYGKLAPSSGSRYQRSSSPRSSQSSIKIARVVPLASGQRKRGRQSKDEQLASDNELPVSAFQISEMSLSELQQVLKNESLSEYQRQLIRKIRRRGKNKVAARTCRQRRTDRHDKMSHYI
# T3 sequence (Q92731 whole entry): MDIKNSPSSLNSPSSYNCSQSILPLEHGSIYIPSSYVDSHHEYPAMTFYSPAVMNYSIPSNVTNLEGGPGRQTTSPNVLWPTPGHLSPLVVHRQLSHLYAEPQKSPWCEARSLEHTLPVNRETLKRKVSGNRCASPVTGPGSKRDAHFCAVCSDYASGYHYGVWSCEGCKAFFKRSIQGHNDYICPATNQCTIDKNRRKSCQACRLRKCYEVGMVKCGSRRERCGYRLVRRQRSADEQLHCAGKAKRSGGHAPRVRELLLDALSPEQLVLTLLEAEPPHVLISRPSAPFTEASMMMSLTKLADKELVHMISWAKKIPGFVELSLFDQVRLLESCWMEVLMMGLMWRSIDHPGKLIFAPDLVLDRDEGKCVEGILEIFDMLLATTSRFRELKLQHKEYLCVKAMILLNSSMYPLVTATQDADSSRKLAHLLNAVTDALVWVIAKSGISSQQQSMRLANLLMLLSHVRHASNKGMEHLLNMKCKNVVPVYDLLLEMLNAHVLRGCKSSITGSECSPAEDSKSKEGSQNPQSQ
# Chain of NAD-dependent protein deacylase sirtuin-5, mitochondrial (Q9NXA8 whole entry): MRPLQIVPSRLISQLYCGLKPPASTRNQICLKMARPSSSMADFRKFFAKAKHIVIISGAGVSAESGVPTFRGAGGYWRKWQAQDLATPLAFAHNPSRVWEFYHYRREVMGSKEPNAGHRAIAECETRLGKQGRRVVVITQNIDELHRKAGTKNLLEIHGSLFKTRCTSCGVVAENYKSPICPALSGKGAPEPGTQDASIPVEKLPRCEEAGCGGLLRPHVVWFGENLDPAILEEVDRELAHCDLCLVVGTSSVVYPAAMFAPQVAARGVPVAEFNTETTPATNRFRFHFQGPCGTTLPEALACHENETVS
# T2 sequence (P11940 whole entry): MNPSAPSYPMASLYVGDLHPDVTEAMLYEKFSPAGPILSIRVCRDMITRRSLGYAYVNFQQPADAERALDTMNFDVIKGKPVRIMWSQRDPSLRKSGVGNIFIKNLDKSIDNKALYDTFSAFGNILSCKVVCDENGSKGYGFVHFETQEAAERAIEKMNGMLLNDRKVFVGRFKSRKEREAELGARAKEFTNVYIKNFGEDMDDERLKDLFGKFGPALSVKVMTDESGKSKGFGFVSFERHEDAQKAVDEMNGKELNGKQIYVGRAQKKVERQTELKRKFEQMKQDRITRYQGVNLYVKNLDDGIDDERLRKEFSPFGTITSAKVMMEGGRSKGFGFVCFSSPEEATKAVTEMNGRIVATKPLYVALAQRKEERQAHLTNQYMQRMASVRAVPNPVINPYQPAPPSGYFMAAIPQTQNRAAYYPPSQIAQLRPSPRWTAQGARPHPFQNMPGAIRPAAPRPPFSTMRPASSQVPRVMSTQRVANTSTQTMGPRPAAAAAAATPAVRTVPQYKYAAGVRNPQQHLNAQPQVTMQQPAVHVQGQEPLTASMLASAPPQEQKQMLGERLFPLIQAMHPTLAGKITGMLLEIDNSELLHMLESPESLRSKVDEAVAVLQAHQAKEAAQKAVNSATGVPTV
# Chain of Nonstructural protein 1 (Q194T2 whole entry): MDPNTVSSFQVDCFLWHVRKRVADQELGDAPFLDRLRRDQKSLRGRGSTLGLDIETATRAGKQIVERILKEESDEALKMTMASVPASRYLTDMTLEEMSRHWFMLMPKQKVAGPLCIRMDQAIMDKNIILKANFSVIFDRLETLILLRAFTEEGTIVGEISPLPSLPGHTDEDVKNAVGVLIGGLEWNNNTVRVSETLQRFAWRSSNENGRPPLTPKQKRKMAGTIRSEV
structure (smiles),measurement,setting,value
Cn1c(CNc2ccc(F)cc2)nc2ccccc21,IC50,[1],> 67.5 µM (inactive)
same,EC50,[2],> 67.5 µM (inactive)
CO[C@H]1CN(C)C(=O)c2cc(NC(=O)NC(C)C)ccc2OC[C@H](C)N(Cc2ccc(-c3ccccn3)cc2)C[C@@H]1C,AC50,[3],22.6 µM (active)
CN(CC(=O)Nc1ccc2c(c1)CCC2)CC(=O)Nc1ccccc1Br,IC50,[4],> 83.3 µM (inactive)
same,IC50,[5],> 109 µM (inactive)
O=C1CCCC(=O)C1CS(=O)(=O)c1ccccc1,IC50,[4],> 83.2 µM (inactive)
same,IC50,[6],> 66 µM (inactive)
same,IC50,[7],> 66 µM (inactive)
same,IC50,[5],> 109 µM (inactive)
CC1C(=O)N2CCCc3cc(S(=O)(=O)NCCc4ccccc4)cc1c32 (stereo not given),AC50,[8],> 30 µM (inactive)
O=C(Cc1cccs1)Nc1ccc(S(=O)(=O)Nc2ncccn2)cc1,IC50,Estrogen receptor beta [9],< 1.56 µM (active)
same,IC50,Estrogen receptor beta [10],0.0699 µM (not active)
CCc1ccc(NS(=O)(=O)c2c(C)noc2C)cc1,AC50,[8],> 30 µM (inactive)
CC(C)CC(c1nnnn1Cc1ccco1)N1CCN(c2cccc(Cl)c2)CC1 (stereo not given),EC50,[11],> 50 µM (active)
CCc1sc(C(=O)N2CCc3ccccc32)cc1C,IC50,[1],> 67.5 µM (inactive)
same,IC50,[12],9.39 µM (not active)
same,EC50,[2],> 67.5 µM (inactive)
CC(=O)Nc1ccccc1-c1nc2ccc(C(=O)N3CCN(c4cc(C)ccc4C)CC3)cc2nc1O,EC50,[11],> 50 µM (active)
C/C(=N\Nc1ccc(C)c(Cl)c1)c1cccnc1,EC50,[11],> 50 µM (active)
COC(=O)c1ccccc1N(C)S(=O)(=O)c1cc2c(cc1C)OCC(=O)N2,AC50,[3],24.1 µM (active)
CCc1ccc(-c2ccc(C(=O)O)c(C)n2)cc1,IC50,[4],> 83.2 µM (inactive)
same,IC50,[5],> 109 µM (inactive)
Cc1ccc(N/C=C/C(=O)c2ccccc2)cc1Br,IC50,[1],> 67.6 µM (inactive)
same,EC50,[2],> 67.6 µM (inactive)
NC(=O)c1ccc(C(F)(F)F)cn1,AC50,[8],> 30 µM (inactive)
Clc1cccc(-c2nc(-c3ccccn3)no2)c1,AC50,[13],5.92 µM (active)
same,EC50,cells [14],> 67.5 µM (inactive)
same,EC50,[15],> 67.5 µM (inactive)
NC(=O)CC(NC(=O)c1ccccc1)c1ccc(NCC2CC2)c([N+](=O)[O-])c1 (stereo not given),IC50,[4],> 83.3 µM (inactive)
same,IC50,[5],> 109 µM (inactive)
Cc1c(C)n(Cc2ccccc2)c2ccc(C(=O)OCCCN(C)C)cc12,EC50,[16],< 0.1 µM (active)
same,IC50,Nonstructural protein 1,43.7 µM (active)
same,EC50,cells [17],0.153 µM (active)
same,EC50,[18],> 30 µM (not active)
Cc1ccc(S(=O)(=O)Nc2ccccc2C(=O)NCc2cccnc2)cc1,AC50,[3],25.6 µM (active)
CC(C)NC1=NN=C(c2ccc(F)cc2)CS1,EC50,[11],> 50 µM (active)
CCOC(=O)c1c(NC(=O)Cn2cnc([N+](=O)[O-])n2)sc2c1CCCC2,EC50,[16],< 0.1 µM (active)
same,EC50,cells [17],0.121 µM (active)
same,EC50,[18],> 60 µM (not active)
CCOC(=O)c1c(NS(=O)(=O)c2cccc(OC)c2)sc2c1CCC2,IC50,[4],> 83.3 µM (inactive)
same,IC50,[5],> 109 µM (inactive)
c1ccc(-c2ccc(-c3ccccn3)s2)nc1,IC50,[1],> 67.6 µM (inactive)
same,EC50,cells [14],> 67.5 µM (inactive)
same,EC50,[2],> 67.6 µM (inactive)
same,EC50,[15],> 67.5 µM (inactive)
Cc1noc(C)c1S(=O)(=O)N(CC(=O)O)c1ccc2c(c1)OCO2,IC50,Estrogen receptor beta [9],9.71 µM (active)
same,IC50,Estrogen receptor beta [10],0.084 µM (not active)
O=C(N/N=C/c1ccc(-c2ccccc2Cl)o1)c1ccccc1,EC50,[16],< 0.1 µM (active)
same,EC50,cells [17],0.035 µM (active)
same,EC50,[18],> 60 µM (not active)
O=C(/C=C\Nc1cccc(F)c1)c1cccs1,EC50,cells [14],> 67.5 µM (inactive)
same,IC50,Protein skinhead-1,28.1 µM (active)
same,EC50,[15],> 67.5 µM (inactive)
O=C(N/N=C/c1ccc(N2CCOCC2)cc1)c1ccc(O)cc1,EC50,[11],> 50 µM (active)
Cc1cc(C)c(NC(=O)CSc2nc3cc(Br)c[nH]c-3n2)c(C)c1,AC50,[8],> 30 µM (inactive)
